In US20080280879A1, “SUBSTITUTED HETEROCYCLIC DERIVATIVES AND THEIR PHARMACEUTICAL USE AND COMPOSITIONS” (priority 2007, published 2008):
Values after ≈ are worked out from the molar mass of the structure shown.

What was measured:
Format in all cases: cell-based, Staphylococcus aureus
[1] = tested on: Staph aureus 2812; test: MIC, microtiter broth dilution (CLSI M7-A7), Assay 1, Table 12 column E, no serum; details: for MIC, column E: Staph aureus 2812, Assay 1, no serum; for MIC: Staphylococcus aureus, 2812, Staph aureus 2812, Assay 1, no serum
Outline: (§1)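 MIC values in μg/ml, taken as lowest drug concentration without macroscopically visible growth, geometric mean where run repeatedly. For serum-shifted testing, strains grew in Mueller-Hinton Broth plus 50% pooled inactivated human serum; otherwise CLSI M7-A7 microtiter dilution, M100-S16 interpretation.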

[2] = tested on: Staph aureus 1146; test: MIC in Mueller-Hinton Broth with 50% pooled inactivated human serum, Assay 1, Table 12; details: for MIC, column C: Staph aureus 1146, Assay 1, 50% human serum; for MIC: Staphylococcus aureus, 1146, Staph aureus 1146, Assay 1, 50% human serum, read-out: MIC, column C
Outline: as §1

[3] = tested on: Staph aureus 2810; test: MIC, microtiter broth dilution (CLSI M7-A7), Assay 2, Table 12 column H, no serum; details: for MIC, column H: Staph aureus 2810, Assay 2, no serum; for MIC: Staphylococcus aureus, 2810, Staph aureus 2810, Assay 2, no serum
Experimental: (§2) The assays described herein include a panel of bacterial isolates of Staphylococcus aureus. Assay 1 comprises the strains noted in Columns A through E, and Assay 2 comprises the strains noted in Columns F through H. The assays are performed in microtiter trays according to Methods for Dilution Antimicrobial Susceptibility Tests for Bacteria that Grow Aerobically; Approved Standard-7th edition (M7-A7) and interpreted according to the Performance Standards for Antimicrobial Susceptibility Testing; 16th Informational Supplement (M100-S16) published by Clinical Laboratory Standards Institute (CLSI). The antibacterial activity is presented in the form of a minimum inhibitory concentration (MIC) value in μg/ml format. The MIC value represents the lowest concentration of drug measured which prevented macroscopically visible growth under the conditions and specific doses tested. The compounds were initially dissolved in DMSO as 30 mM stocks and diluted accordingly to adjust to a concentration of 10 mg/ml or the compounds were dissolved in DMSO at a concentration of 10 mg/ml. For assessment of activity in the presence of human serum, S. aureus 1146 and S. aureus 1031 were inoculated into Mueller-Hinton Broth with 50% pooled inactivated human serum. In some cases, compounds were tested more than once in a particular assay. Where noted, the MIC value shown in Table 12 represents the geometric mean of the data from multiple runs.
(§3) It should be understood that the data in columns A-H represents MIC data in μg/ml and the notation “<=” means ‘less than or equal to’.

[4] = tested on: Staph aureus 2811; test: MIC, microtiter broth dilution (CLSI M7-A7), Assay 1, Table 12 column D, no serum; details: for MIC, column D: Staph aureus 2811, Assay 1, no serum; for MIC: Staphylococcus aureus, 2811, Staph aureus 2811, Assay 1, no serum
Outline: as §1

[5] = tested on: Staph aureus 1031; test: MIC, microtiter broth dilution (CLSI M7-A7), Assay 2, Table 12 column F, no serum; details: for MIC, column F: Staph aureus 1031, Assay 2, no serum; for MIC: Staphylococcus aureus, 1031, Staph aureus 1031, Assay 2, no serum
Experimental: as §2, §3

[6] = tested on: Staph aureus 1146; test: MIC, microtiter broth dilution (CLSI M7-A7), Assay 1, Table 12 column B, no serum; details: for MIC, column B: Staph aureus 1146, Assay 1, no serum; for MIC: Staphylococcus aureus, 1146, Staph aureus 1146, Assay 1, no serum
Outline: as §1

[7] = tested on: Staph aureus 1095 MRSA; test: MIC, microtiter broth dilution (CLSI M7-A7), Assay 1, Table 12 column A, no serum; details: Assay 1, no serum; for MIC: Staphylococcus aureus, MRSA
Outline: as §1

[8] = tested on: Staph aureus 1031; test: MIC in Mueller-Hinton Broth with 50% pooled inactivated human serum, Assay 2, Table 12 column G; details: for MIC: Staphylococcus aureus, 1031, Staph aureus 1031, Assay 2, 50% human serum
Experimental: as §2, §3

COc1ccc2nccc(C(O)CC[C@@H]3CCN(C4CC(c5ccccc5)C4)C[C@@H]3C(=O)O)c2c1 (single isomer, unassigned) [Example 1]
MIC, column E [1]: <=.0992 μg/ml | MIC, column C [2]: 0.3969 µg/mL (≈ 0.836 µM) | MIC, column H [3]: 0.125 µg/mL (≈ 0.263 µM) | MIC, column D [4]: <=.0787 μg/ml | MIC, column F [5]: <=.0884 μg/ml | MIC, column B [6]: <=.0787 μg/ml | MIC, column A [7]: <=.0992 μg/ml

COc1ccc2nccc([C@@H](O)CC[C@@H]3CCN(C4CCc5cc(F)ccc54)C[C@@H]3C(=O)O)c2c1 (single isomer, unassigned) [Example 75]
MIC [3]: > 64 µg/mL | MIC [5]: > 64 µg/mL | MIC [8]: > 64 µg/mL

COc1ccc2nccc(C(O)CC[C@@H]3CCN(C4CC(OCc5ccccc5)C4)C[C@@H]3C(=O)O)c2c1 (stereo partly drawn) [Example 20, (3R,4R)-1-[3-(benzyloxy)cyclobutyl]-4-[3-hydroxy-3-(6-methoxyquinolin-4-yl)propyl]piperidine-3-carboxylic acid]
MIC [3]: 16 µg/mL (≈ 31.7 µM) | MIC [5]: 16 µg/mL (≈ 31.7 µM) | MIC [8]: 64 µg/mL (≈ 127 µM)

COC(=O)[C@H]1CN(C2CCc3cc(F)ccc32)CC[C@H]1CCC(O)c1ccnc2ccc(OC)cc12 (stereo partly drawn) [Example 73, methyl (3R,4R)-1-(5-fluoro-2,3-dihydro-1H-inden-1-yl)-4-[3-hydroxy-3-(6-methoxyquinolin-yl)propyl]piperidine-3-carboxylate]
MIC, column H [3]: >64 µg/mL | MIC, column F [5]: >64 µg/mL | MIC, column G ([8]; Staph aureus 1031, Assay 2, 50% human serum): >64 µg/mL

COc1ccc2nccc(C(O)CC[C@@H]3CCN(C4CCc5cc(F)ccc54)C[C@@H]3C(=O)O)c2c1 (stereo partly drawn) [Example 74, (3R,4R)-1-(5-fluoro-2,3-dihydro-1H-inden-1-yl)-4-(3-hydroxy-3-(6-methoxyquinolin-4-yl)propyl)piperidine-3-carboxylic acid]
MIC [3]: > 64 µg/mL | MIC [5]: > 64 µg/mL | MIC [8]: > 64 µg/mL

COC(=O)[C@H]1CN(C2CCCc3ccccc32)CC[C@H]1CCC(O)c1ccnc2ccc(OC)cc12 (stereo partly drawn) [Example 76, (3R,4R)-methyl 4-(3-hydroxy-3-(6-methoxyquinolin-4-yl)propyl)-1-(1,2,3,4-tetrahydronaphthalen-1-yl)piperidine-3-carboxylate]
MIC [3]: > 64 µg/mL | MIC [5]: > 64 µg/mL | MIC [8]: > 64 µg/mL

COc1ccc2nccc(C(O)CC[C@@H]3CCN(C4CCCc5ccccc54)C[C@@H]3C(=O)O)c2c1 (stereo partly drawn) [Example 77, (3R,4R)-4-(3-hydroxy-3-(6-methoxyquinolin-4-yl)propyl)-1-(1,2,3,4-tetrahydronaphthalen-1-yl)piperidine-3-carboxylic acid]
MIC [3]: > 64 µg/mL | MIC [5]: > 64 µg/mL | MIC [8]: > 64 µg/mL

COC(=O)[C@H]1CN(C2Cc3ccccc3C2)CC[C@H]1CCC(O)c1ccnc2ccc(OC)cc12 (stereo partly drawn) [Example 78, (3R,4R)-methyl 1-(2,3-dihydro-1H-inden-2-yl)-4-(3-hydroxy-3-(6-methoxyquinolin-4-yl)propyl)piperidine-3-carboxylate]
MIC [3]: > 64 µg/mL | MIC [5]: > 64 µg/mL | MIC [8]: > 64 µg/mL

COc1ccc2nccc(C(O)CC[C@@H]3CCN(C4Cc5ccccc5C4)C[C@@H]3C(=O)O)c2c1 (stereo partly drawn) [Example 79, (3R,4R)-1-(2,3-dihydro-1H-inden-2-yl)-4-(3-hydroxy-3-(6-methoxyquinolin-4-yl)propyl)piperidine-3-carboxylic acid]
MIC [3]: 8 µg/mL (≈ 17.4 µM) | MIC [5]: 8 µg/mL (≈ 17.4 µM) | MIC [8]: 64 µg/mL (≈ 139 µM)

COc1ccc2nccc(C(O)CC[C@@H]3CCN(C4Cc5ccc(Cl)cc5C4)C[C@@H]3C(=O)O)c2c1 (stereo partly drawn) [Example 80, (3R,4R)-1-(5-chloro-2,3-dihydro-1H-inden-2-yl)-4-(3-hydroxy-3-(6-methoxyquinolin-4-yl)propyl)piperidine-3-carboxylic acid]
MIC [3]: 1 µg/mL (≈ 2.02 µM) | MIC [5]: 1 µg/mL (≈ 2.02 µM) | MIC [8]: > 64 µg/mL

COc1ccc2nccc(C(O)CC[C@@H]3CCN(C4Cc5cccc(Br)c5C4)C[C@@H]3C(=O)O)c2c1 (stereo partly drawn) [Example 81, (3R,4R)-1-(4-bromo-2,3-dihydro-1H-inden-2-yl)-4-(3-hydroxy-3-(6-methoxyquinolin-4-yl)propyl)piperidine-3-carboxylic acid]
MIC [3]: 4 µg/mL (≈ 7.41 µM) | MIC [5]: 4 µg/mL (≈ 7.41 µM) | MIC [8]: > 64 µg/mL

COC(=O)[C@H]1CN(CC2Cc3ccccc3C2)CC[C@H]1CCC(O)c1ccnc2ccc(OC)cc12 (stereo partly drawn) [Example 82, (3R,4R)-methyl 1-((2,3-dihydro-1H-inden-2-yl)methyl)-4-(3-hydroxy-3-(6-methoxyquinolin-4-yl)propyl)piperidine-3-carboxylate]
MIC [3]: 16 µg/mL (≈ 32.7 µM) | MIC [5]: 8 µg/mL (≈ 16.4 µM) | MIC [8]: 32 µg/mL (≈ 65.5 µM)

COc1ccc2nccc(C(O)CC[C@@H]3CCN(CC4Cc5ccccc5C4)C[C@@H]3C(=O)O)c2c1 (stereo partly drawn) [Example 83, (3R,4R)-1-((2,3-dihydro-1H-inden-2-yl)methyl)-4-(3-hydroxy-3-(6-methoxyquinolin-4-yl)propyl)piperidine-3-carboxylic acid]
MIC [3]: 8 µg/mL (≈ 16.9 µM) | MIC [5]: 8 µg/mL (≈ 16.9 µM) | MIC [8]: 64 µg/mL (≈ 135 µM)

COc1ccc2ncc(F)c(C(O)CC[C@@H]3CCN(C4CC(c5cc(F)cc(F)c5)C4)C[C@@H]3C(=O)O)c2n1 (stereo partly drawn) [Example 222, (3R,4R)-1-[3-(3,5-difluorophenyl)cyclobutyl]-4-[3-(3-fluoro-6-methoxy-1,5-naphthyridin-4-yl)-3-hydroxypropyl]piperidine-3-carboxylic acid]
MIC [1]: < 0.0625 µg/mL | MIC [2]: 2 µg/mL (≈ 3.78 µM) | MIC [4]: < 0.0625 µg/mL | MIC [6]: < 0.0625 µg/mL | MIC [7]: 0.25 µg/mL (≈ 0.472 µM)

COc1ccc2nccc([C@@H](O)CC[C@@H]3CCN(C4CC(c5cccc(C#N)c5)C4)C[C@@H]3C(=O)O)c2c1 (stereo partly drawn) [Example 223, (3R,4R)-1-[3-(3-cyanophenyl)cyclobutyl]-4-[(3S)-3-hydroxy-3-(6-methoxyquinolin-4-yl)propyl]piperidine-3-carboxylic acid]
MIC [1]: 8 µg/mL (≈ 16 µM) | MIC [2]: 32 µg/mL (≈ 64 µM) | MIC [4]: 4 µg/mL (≈ 8.01 µM) | MIC [6]: 4 µg/mL (≈ 8.01 µM) | MIC [7]: 16 µg/mL (≈ 32 µM)

COc1ccc2nccc([C@@H](O)CC[C@@H]3CCN(C4CC(c5ccccc5)C4)C[C@@H]3c3nn[nH]n3)c2c1 (stereo partly drawn) [Example 224, (S)-1-(6-methoxyquinolin-4-yl)-3-((3R,4R)-1-(3-phenylcyclobutyl)-3-(2H-tetrazol-5-yl)piperidin-4-yl)propan-1-ol]
MIC [1]: 0.5 µg/mL (≈ 1 µM) | MIC [2]: 8 µg/mL (≈ 16 µM) | MIC [4]: 0.25 µg/mL (≈ 0.501 µM) | MIC [6]: 0.25 µg/mL (≈ 0.501 µM) | MIC [7]: 2 µg/mL (≈ 4.01 µM)

COc1ccc2nccc([C@@H](O)CC[C@@H]3CCN(C4CC5c6ccccc6SC54)C[C@@H]3C(=O)O)c2c1 (some centres unmarked) [Example 225]
MIC [1]: 0.5 µg/mL (≈ 0.991 µM) | MIC [2]: 2 µg/mL (≈ 3.96 µM) | MIC [4]: 0.25 µg/mL (≈ 0.495 µM) | MIC [6]: 0.25 µg/mL (≈ 0.495 µM) | MIC [7]: 1 µg/mL (≈ 1.98 µM)

COc1ccc2nccc([C@@H](O)CC[C@@H]3CCN(C4CC(c5cccc(C#N)c5)C4)C[C@@H]3C(=O)O)c2c1 (stereo partly drawn) [Example 226, (3R,4R)-1-(3-(3-cyanophenyl)cyclobutyl)-4-((S)-3-hydroxy-3-(6-methoxyquinolin-4-yl)propyl)piperidine-3-carboxylic acid]
MIC, column E [1]: 8 µg/mL (≈ 16 µM) | MIC, column C [2]: 32 µg/mL (≈ 64 µM) | MIC, column D [4]: 4 µg/mL (≈ 8.01 µM) | MIC, column B [6]: 4 µg/mL (≈ 8.01 µM) | MIC, column A [7]: 16 µg/mL (≈ 32 µM)

COc1ccc2ncc(F)c([C@@H](O)CC[C@@H]3CCN(C4CC(=O)N(c5ccccc5)C4)C[C@@H]3C(=O)O)c2c1 (some centres unmarked) [Example 227]
MIC [1]: 8 µg/mL (≈ 15.3 µM) | MIC [2]: 64 µg/mL (≈ 123 µM) | MIC [4]: 2 µg/mL (≈ 3.83 µM) | MIC [6]: 2 µg/mL (≈ 3.83 µM) | MIC [7]: 8 µg/mL (≈ 15.3 µM)

(3R,4R)-1-(1-cyclobutylazetidin-3-yl)-4-[3-hydroxy-3-(6-methoxyquinolin-4-yl)propyl]piperidine-3-carboxylic acid [Example 130]
MIC, column E [1]: >64 µg/mL | MIC, column C [2]: >64 µg/mL | MIC, column D [4]: >64 µg/mL | MIC, column B [6]: >64 µg/mL | MIC, column A [7]: >64 µg/mL

(3R,4R)-1-[3-(2,5-difluorophenyl)cyclobutyl]-4-[3-(3-fluoro-6-methoxy-1,5-naphthyridin-4-yl)-3-hydroxypropyl]piperidine-3-carboxylic acid [Example 219]
MIC, column E [1]: 0.125 µg/mL | MIC, column C [2]: 2.00 µg/mL | MIC, column D [4]: <0.0625 µg/mL | MIC, column B [6]: <0.0625 µg/mL | MIC, column A [7]: 0.250 µg/mL
